One may read the AC50 as the midpoint of the concentration-response curve, whichever way the signal moves.

Molecules are shown by their SMILES. Results filed as inconclusive are left out. Active and inactive are the calls of the source. How the calls were made is not given here.

Our source for the AC50 values is PubChem BioAssay AID504882 (Broad Institute, 2011).

The assay concerns EBV lymphoblastoid cells (LCL) viability, plate reader. Kind of assay: cytotoxicity in EBV lymphoblastoid cells, dose response, cytotoxicity control, cell-based, plate reader, cherry-picks, set 2 (AID 504882).
As to `CC(=O)NC(c1ccc(Cl)cc1)c1ccc2cccnc2c1O` (stereo not given), the AC50 is 1.21 µM.

Regarding `c1ccc(C2=NNC(=NC3CC3)SC2)cc1`, the AC50 was 11.9 µM.

On to `CC(C)OC(=O)c1ccc(NCc2cc(O)ccc2O)cc1Cl`, for which the AC50 is 5.06 µM.

Regarding `Clc1ccc(SCc2cc(N3CCOCC3)nc(-c3ccccn3)n2)cc1`, the half-maximal activity concentration (AC50) is 4.05 µM.

Take `Cc1ccc2[nH]c3c(c2c1)CCCC3NC(=O)CCl` (stereo not given): the AC50 is 1.41 µM.

For the molecule `CC(=NNc1nc2ccccc2s1)c1ncccn1`, the AC50 is 10.2 µM.

In the case of `COc1ccc(-c2[nH]ncc2-c2ccc3c(c2)OCCO3)c(O)c1`, the AC50 is > 19.5 µM (inactive).

On to `CC(=O)Nc1nc(C)c(-c2csc(Nc3ccc(O)cc3)n2)s1`, for which the AC50 was 19.4 µM.

`COc1cccc(/C=N/NC(=O)c2[nH]nc3c2CCc2ccccc2-3)c1O`: the half-maximal activity concentration (AC50) was 4.51 µM.

As to `CCCCC(=O)NC(c1ccc(OC)c(OC)c1)c1ccc2cccnc2c1O` (stereo not given), the concentration at half-maximal activity (AC50) is 5.63 µM.

On to `CCOC(=O)c1c(C)[nH]c(C(=O)N/N=C\c2ccccc2O)c1C`, for which the concentration at half-maximal activity (AC50) is 6.7 µM.

As for `CC(=NNC(=S)N1CCCCCC1)c1ccccn1`, the AC50 was 0.354 µM.

`N#CC(C#N)=NNc1ccc(-n2ccc(C(F)(F)F)n2)cc1`: the AC50 was 2.53 µM.

As to `CCOC(=O)c1c(CSc2nc(C)cc(C)c2C#N)n(C)c2cc(Br)c(OC(C)=O)cc12`, the half-maximal activity concentration (AC50) is 14.6 µM.

Take `O=C(N/N=C/c1sc2ccccc2c1O)c1cccc2ccccc12`: the AC50 is 1.71 µM.

As for `CC(=O)OC1CCC2(C)C(CCC3C4CC=C(C(C)=O)C4(C)OC(=O)CC32)C1` (stereo not given), the half-maximal activity concentration (AC50) is 3.85 µM.

Consider `CCNC(=S)NNC(=O)c1cc(-c2ccc(OCC)cc2)nc2ccccc12`, for which the AC50 was 7.85 µM.

Regarding `C#CCN(C[C@@H]1[C@@H](OC(=O)NCCCCCC)[C@@H](OC(=O)NCCCCCC)Cn2c(=O)ccc(=O)n21)S(=O)(=O)c1ccc(C)cc1`, the AC50 was 3.98 µM.

`CCOC(=O)c1c2c(n(C)c1C)C(=O)C(=O)c1ccc(Br)cc1-2`: the half-maximal activity concentration (AC50) is 1.95 µM.

For `CCCc1cc(=O)n2[nH]cc(-c3ccc(Cl)cc3)c2n1`, the AC50 is 8.45 µM.

`CN=C1S/C(=C\c2ccc(O)c(Br)c2)C(=O)N1C`: the AC50 is > 19.5 µM (inactive).

Consider `CCOc1cccc(/C=N/Nc2ccc(S(=O)(=O)N(CC)CC)cn2)c1O`, for which the concentration at half-maximal activity (AC50) is 1.79 µM.

Turning to `CCN1CCN(Cc2ccc(NC(=O)c3ccc(C)c(/C=C/c4cnc(Nc5cc(N6CCNCC6)nc(C)n5)cn4)c3)cc2C(F)(F)F)CC1`, the AC50 is 9.23 µM.

Take `CCOc1ccc(/C=C/[N+](=O)[O-])c2ccccc12`: the AC50 is 1.92 µM.

Consider `O=C(Nc1nc(-c2ccccn2)cs1)c1ccc(Cl)s1`, for which the AC50 was 1.34 µM.

For `Cc1cc(Sc2nnc(N)s2)c2ccccc2n1`, the AC50 was 16.8 µM.

Turning to `Oc1c(C(Nc2nc3ccccc3s2)c2ccco2)ccc2cccnc12` (stereo not given), the AC50 is 2 µM.

Consider `COc1cccc(/C=N/Nc2ncnc3c2ncn3Cc2ccccc2)c1O`, for which the AC50 was 2.21 µM.

With `CC(=NNc1nc2ccccc2o1)c1cc2ccccc2cn1`, the concentration at half-maximal activity (AC50) was 0.154 µM.

As to `CN(C)c1ccc(C=Cc2ccnc3c(O)cccc23)cc1`, the AC50 was 10.5 µM.

With `O=C(NC(Nc1nc2ccc([N+](=O)[O-])cc2s1)(C(F)(F)F)C(F)(F)F)c1ccccc1`, the AC50 was 0.298 µM.

Turning to `COc1ccc(Cn2c(SCc3cc(C)ccc3C)nc3cc(OC)c(OC)cc3c2=N)cc1`, the AC50 was 6.5 µM.

`S=C1SCN(Cc2ccco2)CN1Cc1ccco1`: the concentration at half-maximal activity (AC50) was 15.8 µM.

As for `C#CCN(C[C@@H]1[C@@H](OC(=O)NCc2ccccc2F)[C@@H](OC(=O)NCc2ccccc2F)Cn2c(=O)ccc(=O)n21)S(=O)(=O)c1ccc(C)cc1`, the AC50 was 3.8 µM.

For the molecule `CCCN(CCC)S(=O)(=O)c1ccc(C(=O)Nc2nnc(-c3cc(OC)cc(OC)c3)o2)cc1`, the AC50 was > 19.5 µM (inactive).

Consider `c1ccc(C(=NNc2nc3ccccc3s2)c2ccccn2)cc1`, for which the AC50 was 1.06 µM.

For `CCN(CC)S(=O)(=O)c1ccc(N/N=C/c2ccc(O)cc2O)nc1`, the AC50 was 3.31 µM.

With `COc1ccc(C(NC(C)=O)c2cc(Cl)c3cccnc3c2O)cc1` (stereo not given), the half-maximal activity concentration (AC50) was 6.92 µM.

As for `COc1cc(C(=O)Oc2ccccc2/C=N/NC(=O)c2ccc(C)c(Cl)c2)cc(OC)c1OC`, the concentration at half-maximal activity (AC50) was 12.7 µM.

In the case of `COc1cccc(/C=N/Nc2nccnc2Cl)c1O`, the half-maximal activity concentration (AC50) is 3.86 µM.

In the case of `CC1=C(C(=O)OCc2ccc3c(c2)OCO3)C(c2ccc(Cl)cc2)NC(=O)N1` (stereo not given), the half-maximal activity concentration (AC50) was 0.379 µM.

In the case of `C=C1C(=O)C2=CC1CCC(=O)C1(C)CCC(OC(C)=O)C(C)(C)C1CC2O` (stereo not given), the AC50 was 5.14 µM.

With `COc1cccc(N=Nc2ccc(O)c3ncccc23)c1`, the AC50 is 2.18 µM.

For `CCCCCCc1cc2cc(-c3nnc(-c4ccccc4)o3)c(=O)oc2cc1O`, the AC50 was 9.34 µM.

Regarding `c1ccc(-c2cccc(-c3ccccn3)n2)nc1`, the half-maximal activity concentration (AC50) was 1.69 µM.

In the case of `Cc1ccc2[nH]c3c(N4CCN(Cc5ccccc5)CC4)ncnc3c2c1`, the AC50 was 10.6 µM.

As to `O=C(N/N=C/c1ccc[nH]1)c1ccc(COc2cccc3cccnc23)cc1`, the half-maximal activity concentration (AC50) was 4.93 µM.

As to `O=c1c2c(nc3c(-c4cccc(Br)c4)c[nH]n13)CCCC2`, the concentration at half-maximal activity (AC50) is 11 µM.

For the molecule `O=C(N/N=C/c1ccc(O)cc1O)c1ccc(CN2C(=O)c3cccc4cccc2c34)cc1`, the AC50 is 3.53 µM.

`CC(=NNC(=S)N1CCCCC1)c1cccc(C)n1`: the AC50 was 2.37 µM.

With `CNc1cccnc1C=NNC(N)=S`, the half-maximal activity concentration (AC50) is 7.97 µM.

`Oc1cccc2ccc(Nc3ccccn3)nc12`: the half-maximal activity concentration (AC50) was 6.35 µM.

On to `Cc1cc(C)nc(SCc2ccc(C(=O)N/N=C/c3cccc(O)c3O)cc2)n1`, for which the half-maximal activity concentration (AC50) is 10.9 µM.

In the case of `CN1CCN(/N=C/c2ccc(N(c3ccccc3)c3ccccc3)cc2)CC1`, the AC50 was 0.354 µM.

In the case of `CCCCC(=O)NC(c1ccc(OC)cc1)c1ccc2cccnc2c1O` (stereo not given), the half-maximal activity concentration (AC50) is 17.7 µM.

On to `NC(=S)NN=Cc1nccc2c(C(F)(F)F)cccc12`, for which the AC50 was 1.15 µM.

As to `Oc1c(N=NC(=S)Nc2ccccc2F)c2ccccc2n1Cc1cccc(Cl)c1`, the AC50 is > 19.5 µM (inactive).

Regarding `CCN(CC)c1ccc(/C=N/NC(=O)c2c(Cl)cnn2C)c(O)c1`, the concentration at half-maximal activity (AC50) was 3.19 µM.

For the molecule `CC(=O)NC(c1ccc(Cl)cc1Cl)c1ccc2cccnc2c1O` (stereo not given), the AC50 is 1.56 µM.

On to `O=C(c1ccccc1)C(CCC(CN1CCOCC1)C(=O)c1ccccc1)CN1CCOCC1` (stereo not given), for which the AC50 was 7.73 µM.

`Cc1ccc(C(=O)Nc2sc(Cc3ccc4c(c3)OCO4)c(C)c2C(N)=O)cc1`: the AC50 was 19.2 µM.

Turning to `COc1nc(Nc2nc3ccccc3c(=O)[nH]2)nc2ccc(C)cc12`, the AC50 was 2.23 µM.

For `C#CCN(C[C@@H]1[C@@H](OC(=O)NCC2CCCCC2)[C@@H](OC(=O)NCC2CCCCC2)Cn2c(=O)ccc(=O)n21)S(=O)(=O)c1ccc(C)cc1`, the AC50 is 3.84 µM.

For the molecule `CC(C)CC(=NNC(=O)c1ccncc1)c1cc(Cl)ccc1O`, the concentration at half-maximal activity (AC50) is 3.19 µM.

In the case of `Cc1cccc(-n2ncc(Cl)c(Cl)c2=O)c1`, the AC50 is 1.59 µM.

For the molecule `C[n+]1c2n(c3ccccc31)N=C(c1cc(C(C)(C)C)c(O)c(C(C)(C)C)c1)CS2`, the concentration at half-maximal activity (AC50) was 7.62 µM.

With `CCc1ccc(Nc2n[n+](-c3ccccc3)c(-c3c(Cl)cccc3Cl)s2)cc1`, the AC50 is 15 µM.

As for `O=C(NNC(=S)Nc1ccc(Cl)c(Cl)c1)c1ccccn1`, the AC50 is 1.5 µM.

Turning to `Nc1ccn([C@@H]2O[C@H](CO)[C@@H](O)[C@@H]2O)c(=O)n1`, the half-maximal activity concentration (AC50) was 0.748 µM.

Take `COc1ccccc1/C=C/C(=O)c1ccc(Cl)cc1`: the AC50 is > 19.5 µM (inactive).
